Test results published in patent publication US20260001914A1, “MACROCYCLIC PEPTIDES TARGETING KRAS” (Merck Sharp & Dohme LLC, priority 2022, published 2026).
*1 amine or outer side, *2 acyl side, *3 side chain or, on linkers, in order; H or OH if unused. Where a SMILES comes first, the peptide text is derived from it. Bridges are numbered along the chain shown (N, C = ends). [ ]: non-standard residue; d: D form. Phe(4-guanidino) = N=C(N)Nc1ccc(C[C@H](N)C(=O)O)cc1; X76 = CN(CCC[C@@H](C(=O)[*:2])N(C)[*:1])S(C)(=O)=O; X23 = O=C([C@H](Cc1ccc(C(F)(F)F)nc1)N[*:1])[*:2]; Ala(pyrimidin-5-yl) = N[C@@H](Cc1cncnc1)C(=O)O; X29 = CC(=O)N(C)CCC[C@@H](C(=O)[*:2])N(C)[*:1]; NMe3Pal(6-Me) = CN[C@@H](Cc1ccc(C)nc1)C(=O)O; NMePhe(4-F) = CN[C@@H](Cc1ccc(F)cc1)C(=O)O; X42 = O=C([C@H](Cc1cc(F)ncc1F)N[*:1])[*:2]; X7 = C[C@H](N[*:1])C12CC(C(=O)[*:2])(C1)C2; X25 = O=C([C@H](Cc1ccc(F)nc1)N[*:1])[*:2]; X69 = O=C([C@H]1CC[C@@H](N[*:1])C1)[*:2]; X30 = O=C([C@H](Cc1ncccc1F)N[*:1])[*:2]; Arg(Me2s) = CN=C(NC)NCCC[C@H](N)C(=O)O; NMeAha = CN[C@@H](CCN=[N+]=[N-])C(=O)O; X2 = O=C([C@H](Cc1ccccc1F)O[*:1])[*:2]; Phe(2-F) = N[C@@H](Cc1ccccc1F)C(=O)O; Abu(4,4-F2) = N[C@@H](CC(F)F)C(=O)O; NMe3Pal = CN[C@@H](Cc1cccnc1)C(=O)O; X1 = O=C(C12CC(CN[*:1])(C1)C2)[*:2]; Aha = [N-]=[N+]=NCC[C@H](N)C(=O)O; Ala(cPr) = N[C@@H](CC1CC1)C(=O)O; NMeF = CN[C@@H](Cc1ccccc1)C(=O)O; PhLac = O=C(O)[C@@H](O)Cc1ccccc1; 3Pal = N[C@@H](Cc1cccnc1)C(=O)O; Ahp(2) = CCCCC[C@H](N)C(=O)O; Cba = N[C@@H](CC1CCC1)C(=O)O; hLeu = CC(C)CC[C@H](N)C(=O)O; αMeC = C[C@](N)(CS)C(=O)O; NMeA = CN[C@@H](C)C(=O)O; Nle = CCCC[C@H](N)C(=O)O; Nva = CCC[C@H](N)C(=O)O

These molecules were tested against KRAS-G12D protein (Homo sapiens, UniProt P01116, G12D) (assay: SOS-mediated nucleotide exchange assay (BODIPY-GDP / Tb-streptavidin TR-FRET)).
Chain of KRAS-G12D protein (P01116 1-188 isoform P01116-2 G12D): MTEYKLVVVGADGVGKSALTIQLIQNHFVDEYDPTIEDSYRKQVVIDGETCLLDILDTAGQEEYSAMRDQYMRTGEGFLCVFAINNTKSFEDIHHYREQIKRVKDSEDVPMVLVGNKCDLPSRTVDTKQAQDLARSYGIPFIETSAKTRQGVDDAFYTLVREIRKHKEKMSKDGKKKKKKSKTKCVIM
Assay type: biochemical

| Structure (SMILES) | EC50 [nM] |
| --- | --- |
| CCCC[C@@H]1NC(=O)[C@H](Cc2cncnc2)NC(=O)[C@H](C)N(C)C(=O)[C@H](Cc2ccccc2)OC(=O)C23CC(C2)(C3)[C@H](C)NC(=O)[C@H](Cc2cccnc2)N(C)C(=O)[C@H](CCCC)NC(=O)[C@H](Cc2ccccc2F)NC1=O [compound 121, cyclo(FLac-NMeA-PyrimAla-Nle-Phe2F-Nle-NMe3Pal-SMeamBCP)] (cyclo([NMe3Pal][X7][PhLac][NMeA][Ala(pyrimidin-5-yl)][Nle][Phe(2-F)][Nle])) | 33.5 |
| CCCCC[C@@H]1NC(=O)[C@H](Cc2ccc(OC)cc2)NC(=O)[C@H](CC2CCC2)NC(=O)[C@H](Cc2cccnc2)NC(=O)[C@H](CCCNC(=N)N)NC(=O)[C@H](Cc2ccccc2)NC(=O)CSC[C@@](C)(C(N)=O)NC(=O)[C@H](Cc2ccc(C)nc2)N(C)C1=O [compound 377, cyclo(F-R-3Pal-cBuA-TyrOMe-Ahp-NMe3Pal4Me-aMeCl-ClAc)] ({CH2CO}-FR[3Pal][Cba]Y(Me)[Ahp(2)][NMe3Pal(6-Me)][αMeC]-NH2; thioether N-8) | 8.11 |
| CCC[C@@H]1NC(=O)[C@H](Cc2ccc(O)cc2)NC(=O)[C@H](CC(C)C)NC(=O)[C@H](Cc2ccc(O)cc2)NC(=O)[C@H](CCCNC(=N)N)NC(=O)[C@H](Cc2ccccc2)NC(=O)CCCNC(=O)[C@H](Cc2ccccc2)N(C)C1=O [compound 161, cyclo(F-R-Y-L-Y-Nva-NMeF-C4NH2acid)] | 2840 |
| CCCC[C@@H]1NC(=O)[C@H](Cc2ccc(OC)cc2)NC(=O)[C@H](CC(C)C)NC(=O)[C@H](Cc2ccc(NC(=N)N)cc2)NC(=O)[C@H](CCCN=C(NC)NC)NC(=O)[C@H](Cc2ccccc2)NC(=O)CSC[C@H](C(N)=O)NC(=O)[C@H](Cc2ccccc2)N(C)C1=O [compound 46, cyclo(F-ArgMeMe-Phe4Gn-L-TyrOMe-Nle-NMeF-dCl-ClAc)] ({CH2CO}-F[Arg(Me2s)][Phe(4-guanidino)]LY(Me)[Nle][NMeF][dC]-NH2; thioether N-8) | 1160 |
| CCCC[C@@H]1NC(=O)[C@H](Cc2cccnc2)NC(=O)[C@H](CCCN(C)S(C)(=O)=O)N(C)C(=O)[C@H](Cc2ccccc2)OC(=O)C23CC(CNC(=O)[C@H](Cc4cccnc4)N(C)C(=O)[C@H](CCCC)NC(=O)[C@H](Cc4ccccc4F)NC1=O)(C2)C3 [compound 406, cyclo(FLac-NMeOmSuf-3Pal-Nle-Phe2F-Nle-NMe3Pal-amBCP)] (cyclo([3Pal][Nle][Phe(2-F)][Nle][NMe3Pal][X1][PhLac][X76])) | 26 |
| CCCC[C@@H]1NC(=O)[C@H](Cc2ccc(C(F)(F)F)nc2)NC(=O)[C@H](CCN=[N+]=[N-])N(C)C(=O)[C@H](Cc2ccccc2)OC(=O)C23CC(CNC(=O)[C@H](Cc4cccnc4)N(C)C(=O)[C@H](CCCC)NC(=O)[C@H](Cc4ccccc4F)NC1=O)(C2)C3 [compound 241, cyclo(FLac-NMeDabN3-4CF33Pal-Nle-Phe2F-Nle-NMe3Pal-amBCP)] (cyclo([NMe3Pal][X1][PhLac][NMeAha][X23][Nle][Phe(2-F)][Nle])) | 435 |
| C[C@H]1C(=O)N[C@@H](Cc2cncnc2)C(=O)N[C@@H](CC2CC2)C(=O)N[C@@H](Cc2ccccc2F)C(=O)N[C@@H](CC2CC2)C(=O)N(C)[C@@H](Cc2ccccc2)C(=O)NCC23CC(C2)(C3)C(=O)O[C@@H](Cc2ccccc2)C(=O)N1C [compound 267, cyclo(FLac-NMeA-PyrimAla-cPrA-Phe2F-cPrA-NMeF-amBCP)] (cyclo([Ala(cPr)][NMeF][X1][PhLac][NMeA][Ala(pyrimidin-5-yl)][Ala(cPr)][Phe(2-F)])) | 471 |
| CC(C)CC[C@@H]1NC(=O)[C@H](Cc2cc(F)ncc2F)NC(=O)[C@H](CC2CC2)NC(=O)[C@H](Cc2cncnc2)NC(=O)[C@H](C)N(C)C(=O)[C@H](Cc2ccccc2)OC(=O)C23CC(CNC(=O)[C@H](Cc4ccccc4)N(C)C1=O)(C2)C3 [compound 280, cyclo(FLac-NMcA-PyrimAla-cPrA-4Pal25F2-hL-NMeF-amBCP)] (cyclo([Ala(cPr)][X42][hLeu][NMeF][X1][PhLac][NMeA][Ala(pyrimidin-5-yl)])) | 4 |
| CC(C)CC[C@@H]1NC(=O)[C@H](Cc2ccccc2F)NC(=O)[C@H](CC(F)F)NC(=O)[C@H](Cc2cncnc2)NC(=O)[C@H](C)N(C)C(=O)[C@H](Cc2ccccc2)OC(=O)C23CC(CNC(=O)[C@H](Cc4ccccc4)N(C)C1=O)(C2)C3 [compound 304, cyclo(FLac-NMeA-PyrimAla-AbuF2-Phe2F-hL-NMeF-amBCP)] (cyclo([NMeA][Ala(pyrimidin-5-yl)][Abu(4,4-F2)][Phe(2-F)][hLeu][NMeF][X1][PhLac])) | 17.2 |
| CCCC[C@@H]1NC(=O)[C@H](Cc2ccc(OC)cc2)NC(=O)[C@H](CC(C)C)NC(=O)[C@H](Cc2ccc(NC(=N)N)cc2)NC(=O)[C@H](CCC)NC(=O)[C@H](Cc2ccccc2)NC(=O)CSC[C@H](C(N)=O)NC(=O)[C@H](Cc2ccccc2)N(C)C1=O [compound 48, cyclo(F-Nva-Phe4Gn-L-TyrOMe-Nle-NMeF-dCl-ClAc)] ({CH2CO}-F[Nva][Phe(4-guanidino)]LY(Me)[Nle][NMeF][dC]-NH2; thioether N-8) | 4320 |
| CCCC[C@@H]1NC(=O)[C@H](Cc2cccnc2)NC(=O)[C@H](CCCNC(=N)N)NC(=O)[C@H](Cc2ccccc2)NC(=O)[C@H]2CC[C@H](C2)NC(=O)[C@H](Cc2ccccc2)N(C)C(=O)[C@H](CCCC)NC(=O)[C@H](Cc2ccc(OC)cc2)NC1=O [compound 202, cyclo(F-R-3Pal-Nle-TyrOMe-Nle-NMeF-dbhcLeu)] (cyclo(FR[3Pal][Nle]Y(Me)[Nle][NMeF][X69])) | 949 |
| CCC[C@@H]1NC(=O)[C@H](Cc2ccc(O)cc2)NC(=O)[C@H](CC(C)C)NC(=O)[C@H](Cc2ccc(O)cc2)NC(=O)[C@H](CCCNC(=N)N)NC(=O)[C@H](Cc2ccccc2)NC(=O)CSC[C@@H](C(N)=O)NC(=O)[C@H](Cc2ccccc2)N(C)C1=O [compound 16, cyclo(F-R-Y-L-Y-Nva-NMeF-Cl-ClAc)] | 3620 |
| CCCC[C@@H]1NC(=O)[C@H](Cc2cncnc2)NC(=O)[C@H](C)N(C)C(=O)[C@H](Cc2ccccc2)OC(=O)C23CC(CNC(=O)[C@H](Cc4ccc(F)cc4)N(C)C(=O)[C@H](CCCC)NC(=O)[C@H](Cc4ccccc4F)NC1=O)(C2)C3 [compound 173, cyclo(FLac-NMeA-PyrimAla-Nle-Phe2F-Nle-NMePhe4F-amBCP)] (cyclo([NMeA][Ala(pyrimidin-5-yl)][Nle][Phe(2-F)][Nle][NMePhe(4-F)][X1][PhLac])) | 12.5 |
| CCCC[C@@H]1NC(=O)[C@H](Cc2cccnc2)NC(=O)[C@H](CCCN(C)C(C)=O)N(C)C(=O)[C@H](Cc2ccccc2)OC(=O)C23CC(CNC(=O)[C@H](Cc4cccnc4)N(C)C(=O)[C@H](CCCC)NC(=O)[C@H](Cc4ccccc4F)NC1=O)(C2)C3 [compound 405, cyclo(FLac-NMeOrnAc-3Pal-Nle-Phe2F-Nle-NMe3Pal-amBCP)] (cyclo([3Pal][Nle][Phe(2-F)][Nle][NMe3Pal][X1][PhLac][X29])) | 50 |
| CC(C)CC[C@@H]1NC(=O)[C@H](Cc2ccccc2F)NC(=O)[C@H](CC2CC2)NC(=O)[C@H](Cc2cncnc2)NC(=O)[C@H](C)N(C)C(=O)[C@H](Cc2ccccc2)OC(=O)C23CC(CNC(=O)[C@H](Cc4ccccc4)N(C)C1=O)(C2)C3 [compound 260, cyclo(FLac-NMeA-PyrimAla-cPrA-Phe2F-hL-NMeF-amBCP)] (cyclo([Ala(cPr)][Phe(2-F)][hLeu][NMeF][X1][PhLac][NMeA][Ala(pyrimidin-5-yl)])) | 1.95 |
| CCCC[C@@H]1NC(=O)[C@H](CCCCN)NC(=O)[C@H](CCCNC(=N)N)NC(=O)[C@H](C(c2ccccc2)c2ccccc2)NC(=O)CSC[C@H](C(N)=O)NC(=O)[C@H](Cc2ccccc2)N(C)C(=O)[C@H](CCCC)NC(=O)[C@H](Cc2ccc(O)cc2)NC1=O [compound 149, cyclo(Dip-R-K-Nle-Y-Nle-NMeF-dCl-ClAc)] | 1030 |
| CCCC[C@@H]1NC(=O)[C@H](Cc2ccc(F)nc2)NC(=O)[C@H](C)N(C)C(=O)[C@H](Cc2ccccc2)OC(=O)C23CC(CNC(=O)[C@H](Cc4ccccc4)N(C)C(=O)[C@H](CCC)NC(=O)[C@H](Cc4ccccc4F)NC1=O)(C2)C3 [compound 234, cyclo(FLac-NMeA-4F3Pal-Nle-Phe2F-Nva-NMeF-amBCP)] (cyclo([NMeA][X25][Nle][Phe(2-F)][Nva][NMeF][X1][PhLac])) | 997 |
| CCCC[C@@H]1NC(=O)[C@H](C(C)C)NC(=O)[C@H](CC2CCC2)NC(=O)[C@H](Cc2cccnc2)NC(=O)[C@H](CCN=[N+]=[N-])NC(=O)[C@H](Cc2ccccc2)NC(=O)C23CC(CNC(=O)[C@H](Cc4cccnc4)N(C)C1=O)(C2)C3 [compound 113, cyclo(F-DabN3~3Pal-cBuA-V-Nle-NMe3Pal-amBCP)] (cyclo(F[Aha][3Pal][Cba]V[Nle][NMe3Pal][X1])) | 6560 |
| CCCC[C@@H]1NC(=O)[C@H](Cc2cccnc2)NC(=O)[C@H](CCN=[N+]=[N-])N(C)C(=O)[C@H](Cc2ccccc2)OC(=O)C23CC(CNC(=O)[C@H](Cc4cccnc4)N(C)C(=O)[C@H](CCCC)NC(=O)[C@H](Cc4ccccc4F)OC1=O)(C2)C3 [compound 238, cyclo(FLac-NMeDabN3-3Pal-Nle-F2FLac-Nle-NMe3Pal-amBCP)] (cyclo([3Pal][Nle][X2][Nle][NMe3Pal][X1][PhLac][NMeAha])) | 5590 |
| CCCC[C@@H]1NC(=O)[C@H](Cc2ccc(F)nc2)NC(=O)[C@H](C)N(C)C(=O)[C@H](Cc2ccccc2)OC(=O)C23CC(CNC(=O)[C@H](Cc4ccccc4)N(C)C(=O)[C@H](CCCC)NC(=O)[C@H](Cc4ncccc4F)NC1=O)(C2)C3 [compound 228, cyclo(FLac-NMeA-4F3Pal-Nle-2Pal6F-Nle-NMeF-amBCP)] (cyclo([NMeA][X25][Nle][X30][Nle][NMeF][X1][PhLac])) | 870 |
| CCCC[C@@H]1NC(=O)[C@H](Cc2cccnc2)NC(=O)[C@H](CCCNC(=N)N)NC(=O)[C@H](Cc2ccccc2)NC(=O)CSC[C@@](C)(C(N)=O)NC(=O)[C@H](Cc2ccccc2)N(C)C(=O)[C@H](CCCC)NC(=O)[C@H](Cc2ccccc2F)NC1=O [compound 160, cyclo(F-R-3Pal-Nle-Phe2F-Nle-NMeF-aMeCl-ClAc)] ({CH2CO}-FR[3Pal][Nle][Phe(2-F)][Nle][NMeF][αMeC]-NH2; thioether N-8) | 12.8 |
